Source: ChEMBL document CHEMBL5696442, “Discovery of type II inhibitors of TGFβ-activated kinase 1 (TAK1) and mitogen-activated protein kinase kinase kinase kinase 2 (MAP4K2)” (J Med Chem, 2015)
Activity calls are given as the source filed them. The rule behind the calls is not given here.

Key:
[1] = biological target: Cyclin-dependent kinase 8/19 (Homo sapiens) (UniProt P49336+Q9BWU1); assay: Inhibition of CDK8/11 K2 labeling site in human Huh-7 cells at 1 uM by KiNativ Profiling analysis relative to control; format: cell-based
[2] = biological target: Tyrosine-protein kinase ABL (Homo sapiens) (UniProt P00519+P42684); assay: Inhibition of ABL1/2 K1 labeling site in human Huh-7 cells at 10 uM by KiNativ Profiling analysis relative to control; format: cell-based
[3] = biological target: Activated CDC42 kinase 1 (Homo sapiens) (UniProt Q07912); assay: Inhibition of TNK2 (unknown origin) at 10 uM by Ambit Kinomescan binding assay
[4] = biological target: T1, Dual specificity mitogen-activated protein kinase kinase 6 (Homo sapiens) (UniProt P52564); assay: Inhibition of MAP2K6 K2 labeling site in human Huh-7 cells at 10 uM by KiNativ Profiling analysis relative to control; format: cell-based
T1 sequence (whole entry): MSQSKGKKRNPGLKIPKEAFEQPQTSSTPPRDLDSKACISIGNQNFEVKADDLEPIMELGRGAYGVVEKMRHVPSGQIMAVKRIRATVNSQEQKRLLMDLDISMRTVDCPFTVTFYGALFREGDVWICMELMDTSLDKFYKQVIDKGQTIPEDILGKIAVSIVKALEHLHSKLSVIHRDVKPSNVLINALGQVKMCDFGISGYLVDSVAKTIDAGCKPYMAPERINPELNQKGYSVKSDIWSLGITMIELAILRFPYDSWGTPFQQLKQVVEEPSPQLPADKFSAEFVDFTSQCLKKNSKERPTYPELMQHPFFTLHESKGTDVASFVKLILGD

[5] = biological target: Ribosomal protein S6 kinase alpha-3 (Homo sapiens) (UniProt P51812); assay: Inhibition of RSK2 Domain 2 K2 labeling site harbouring DLKPSNILYVDESGNPESIR in human Huh-7 cells at 10 uM by KiNativ Profiling analysis relative to control; format: cell-based
[6] = biological target: Phosphorylase b kinase gamma catalytic chain, skeletal muscle/heart isoform (Homo sapiens) (UniProt Q16816); assay: Inhibition of PHKG1 (unknown origin) at 10 uM by Ambit Kinomescan binding assay
[7] = biological target: Cyclin-dependent kinase 20 (Homo sapiens) (UniProt Q8IZL9); assay: Inhibition of CCRK Lys2 labeling site in human A-375 cells at 5 uM by KiNativ Profiling analysis relative to control; format: cell-based
[8] = biological target: Epidermal growth factor receptor (Homo sapiens) (UniProt P00533); assay: Inhibition of EGFR ACT labeling site harbouring ITDFGLAKLLGAEEK in human A-375 cells at 0.5 uM by KiNativ Profiling analysis relative to control; format: cell-based
[9] = biological target: Cyclin-dependent kinase 5 (Homo sapiens) (UniProt Q00535); assay: Inhibition of CDK5 Lys2 labeling site in human A-375 cells at 5 uM by KiNativ Profiling analysis relative to control; format: cell-based
[10] = biological target: Ribosomal protein S6 kinase alpha-6 (Homo sapiens) (UniProt Q9UK32); assay: Inhibition of N-terminal RPS6KA6 kinase domain 1 (unknown origin) at 10 uM by Ambit Kinomescan binding assay
[11] = biological target: STE20-related kinase adapter protein alpha (Homo sapiens) (UniProt Q7RTN6); assay: Inhibition of STLK5 ACT labeling site in human Huh-7 cell lysate at 1 uM by KiNativ Profiling analysis relative to control; format: subcellular
[12] = biological target: Cyclin-dependent kinase 17 (Homo sapiens) (UniProt Q00537); assay: Inhibition of PCTAIRE2 Lys2 labeling site harbouring DLKPQNLLINEKGELKLADFGLAR in human Huh-7 cells at 1 uM by KiNativ Profiling analysis relative to control; format: cell-based
[13] = biological target: Cyclin-dependent kinase 9 (Homo sapiens) (UniProt P50750); assay: Inhibition of CDK9 Lys2 labeling site in human Huh-7 cells at 1 uM by KiNativ Profiling analysis relative to control; format: cell-based
[14] = biological target: Mitogen-activated protein kinase 9 (Homo sapiens, UniProt P45984); assay: Inhibition of JNK2 (unknown origin) at 1 uM by Ambit Kinomescan binding assay relative to control
[15] = biological target: T2, Inhibitor of nuclear factor kappa-B kinase subunit beta (Homo sapiens) (UniProt O14920); assay: Inhibition of IKK-beta (unknown origin) at 1 uM by Ambit Kinomescan binding assay relative to control; values are per cent of control
T2 sequence (whole entry): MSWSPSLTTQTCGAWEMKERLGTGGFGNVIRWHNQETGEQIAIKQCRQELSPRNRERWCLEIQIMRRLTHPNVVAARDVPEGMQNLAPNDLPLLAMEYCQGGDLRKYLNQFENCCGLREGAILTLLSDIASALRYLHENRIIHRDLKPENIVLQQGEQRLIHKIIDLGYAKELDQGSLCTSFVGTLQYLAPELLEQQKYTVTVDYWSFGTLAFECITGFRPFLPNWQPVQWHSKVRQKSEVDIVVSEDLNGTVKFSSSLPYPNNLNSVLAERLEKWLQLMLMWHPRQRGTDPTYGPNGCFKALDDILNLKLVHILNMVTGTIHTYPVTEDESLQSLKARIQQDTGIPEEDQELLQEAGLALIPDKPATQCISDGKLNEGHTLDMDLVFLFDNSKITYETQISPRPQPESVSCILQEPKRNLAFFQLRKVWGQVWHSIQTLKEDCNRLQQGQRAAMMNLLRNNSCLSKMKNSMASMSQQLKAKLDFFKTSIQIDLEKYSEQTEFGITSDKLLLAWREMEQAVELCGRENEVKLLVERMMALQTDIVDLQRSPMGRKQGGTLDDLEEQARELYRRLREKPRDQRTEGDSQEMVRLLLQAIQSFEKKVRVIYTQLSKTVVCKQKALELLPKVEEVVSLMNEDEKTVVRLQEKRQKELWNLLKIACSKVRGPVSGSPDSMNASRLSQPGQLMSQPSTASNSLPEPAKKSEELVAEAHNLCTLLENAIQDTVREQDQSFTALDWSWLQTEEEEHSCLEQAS

[16] = biological target: Serine/threonine-protein kinase MARK2 (Homo sapiens) (UniProt Q7KZI7); assay: Inhibition of MARK2 Lys2 labeling site harbouring FIVHRDLKAENLLLDADMNIK in human A-375 cells at 0.5 uM by KiNativ Profiling analysis relative to control; format: cell-based
[17] = biological target: Ribosomal protein S6 kinase alpha-4 (Homo sapiens) (UniProt O75676); assay: Inhibition of C-terminal RPS6KA4 kinase domain 2 (unknown origin) at 1 uM by Ambit Kinomescan binding assay relative to control
[18] = biological target: 5'-AMP-activated protein kinase catalytic subunit alpha-2 (Homo sapiens) (UniProt P54646); assay: Inhibition of AMPKa2 Lys2 labeling site in human A-375 cells at 0.5 uM by KiNativ Profiling analysis relative to control; format: cell-based
[19] = biological target: Ephrin type-B receptor 3 (Homo sapiens) (UniProt P54753); assay: Inhibition of EPHB3 (unknown origin) at 1 uM by Ambit Kinomescan binding assay relative to control; values are per cent of control
Ephrin type-B receptor 3 (Homo sapiens), sequence (P54753 whole entry): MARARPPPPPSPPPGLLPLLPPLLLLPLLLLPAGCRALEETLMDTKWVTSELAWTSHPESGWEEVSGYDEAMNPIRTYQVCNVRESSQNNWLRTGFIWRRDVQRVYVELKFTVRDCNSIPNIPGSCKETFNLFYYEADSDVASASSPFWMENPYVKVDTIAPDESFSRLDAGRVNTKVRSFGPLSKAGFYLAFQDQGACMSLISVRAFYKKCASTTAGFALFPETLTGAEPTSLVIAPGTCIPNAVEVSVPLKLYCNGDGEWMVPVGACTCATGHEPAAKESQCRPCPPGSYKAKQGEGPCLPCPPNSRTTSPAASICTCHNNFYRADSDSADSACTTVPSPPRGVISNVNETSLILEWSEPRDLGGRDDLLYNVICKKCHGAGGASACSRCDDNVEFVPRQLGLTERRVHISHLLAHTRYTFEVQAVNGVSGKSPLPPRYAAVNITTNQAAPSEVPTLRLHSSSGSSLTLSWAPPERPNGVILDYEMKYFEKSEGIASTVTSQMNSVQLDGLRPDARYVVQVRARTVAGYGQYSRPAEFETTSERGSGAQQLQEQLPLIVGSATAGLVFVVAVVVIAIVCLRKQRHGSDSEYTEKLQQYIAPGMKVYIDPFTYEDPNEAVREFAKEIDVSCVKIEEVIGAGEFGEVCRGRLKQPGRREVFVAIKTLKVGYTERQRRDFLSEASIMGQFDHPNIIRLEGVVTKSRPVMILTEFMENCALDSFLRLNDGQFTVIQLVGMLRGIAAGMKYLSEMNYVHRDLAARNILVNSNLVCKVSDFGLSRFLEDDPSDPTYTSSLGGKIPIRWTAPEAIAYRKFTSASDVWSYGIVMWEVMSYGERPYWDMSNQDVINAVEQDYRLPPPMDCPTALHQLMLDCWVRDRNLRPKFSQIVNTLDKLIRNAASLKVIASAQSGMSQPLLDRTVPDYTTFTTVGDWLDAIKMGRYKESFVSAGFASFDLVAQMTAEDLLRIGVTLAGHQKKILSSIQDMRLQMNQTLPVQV

Ribosomal protein S6 kinase alpha-3 (Homo sapiens), sequence (P51812 whole entry, the tested form may be a part, canonical isoform): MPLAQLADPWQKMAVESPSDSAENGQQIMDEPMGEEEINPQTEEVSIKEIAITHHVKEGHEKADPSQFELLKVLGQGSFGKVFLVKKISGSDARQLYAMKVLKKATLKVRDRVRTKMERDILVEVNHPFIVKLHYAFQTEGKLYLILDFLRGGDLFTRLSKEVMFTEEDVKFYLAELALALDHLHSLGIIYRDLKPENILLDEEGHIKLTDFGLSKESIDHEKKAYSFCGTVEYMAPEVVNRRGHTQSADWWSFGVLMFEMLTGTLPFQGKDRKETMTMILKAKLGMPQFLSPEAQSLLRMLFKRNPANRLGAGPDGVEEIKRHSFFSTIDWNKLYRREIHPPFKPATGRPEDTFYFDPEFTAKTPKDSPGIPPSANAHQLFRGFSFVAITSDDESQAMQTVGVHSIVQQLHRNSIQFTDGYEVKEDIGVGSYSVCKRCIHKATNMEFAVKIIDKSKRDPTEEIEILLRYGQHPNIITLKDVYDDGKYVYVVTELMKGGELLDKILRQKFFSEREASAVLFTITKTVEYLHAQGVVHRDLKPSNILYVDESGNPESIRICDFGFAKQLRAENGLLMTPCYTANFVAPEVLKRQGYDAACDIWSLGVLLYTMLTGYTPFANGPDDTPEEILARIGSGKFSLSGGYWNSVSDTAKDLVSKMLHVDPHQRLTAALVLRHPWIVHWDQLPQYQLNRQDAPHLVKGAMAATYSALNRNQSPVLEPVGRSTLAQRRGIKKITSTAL
STE20-related kinase adapter protein alpha (Homo sapiens), sequence (Q7RTN6 whole entry): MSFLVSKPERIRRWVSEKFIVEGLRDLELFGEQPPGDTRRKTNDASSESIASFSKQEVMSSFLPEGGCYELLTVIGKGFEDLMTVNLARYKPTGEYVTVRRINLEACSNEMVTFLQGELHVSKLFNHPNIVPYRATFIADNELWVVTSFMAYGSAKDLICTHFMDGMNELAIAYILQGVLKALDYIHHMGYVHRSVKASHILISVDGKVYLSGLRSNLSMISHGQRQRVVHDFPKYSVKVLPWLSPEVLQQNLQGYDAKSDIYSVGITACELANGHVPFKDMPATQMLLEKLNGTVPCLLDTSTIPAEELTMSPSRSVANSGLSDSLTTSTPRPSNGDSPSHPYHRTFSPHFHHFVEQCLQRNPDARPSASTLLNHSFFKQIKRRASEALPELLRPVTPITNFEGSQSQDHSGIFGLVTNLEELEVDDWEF
Epidermal growth factor receptor (Homo sapiens), sequence (P00533 whole entry): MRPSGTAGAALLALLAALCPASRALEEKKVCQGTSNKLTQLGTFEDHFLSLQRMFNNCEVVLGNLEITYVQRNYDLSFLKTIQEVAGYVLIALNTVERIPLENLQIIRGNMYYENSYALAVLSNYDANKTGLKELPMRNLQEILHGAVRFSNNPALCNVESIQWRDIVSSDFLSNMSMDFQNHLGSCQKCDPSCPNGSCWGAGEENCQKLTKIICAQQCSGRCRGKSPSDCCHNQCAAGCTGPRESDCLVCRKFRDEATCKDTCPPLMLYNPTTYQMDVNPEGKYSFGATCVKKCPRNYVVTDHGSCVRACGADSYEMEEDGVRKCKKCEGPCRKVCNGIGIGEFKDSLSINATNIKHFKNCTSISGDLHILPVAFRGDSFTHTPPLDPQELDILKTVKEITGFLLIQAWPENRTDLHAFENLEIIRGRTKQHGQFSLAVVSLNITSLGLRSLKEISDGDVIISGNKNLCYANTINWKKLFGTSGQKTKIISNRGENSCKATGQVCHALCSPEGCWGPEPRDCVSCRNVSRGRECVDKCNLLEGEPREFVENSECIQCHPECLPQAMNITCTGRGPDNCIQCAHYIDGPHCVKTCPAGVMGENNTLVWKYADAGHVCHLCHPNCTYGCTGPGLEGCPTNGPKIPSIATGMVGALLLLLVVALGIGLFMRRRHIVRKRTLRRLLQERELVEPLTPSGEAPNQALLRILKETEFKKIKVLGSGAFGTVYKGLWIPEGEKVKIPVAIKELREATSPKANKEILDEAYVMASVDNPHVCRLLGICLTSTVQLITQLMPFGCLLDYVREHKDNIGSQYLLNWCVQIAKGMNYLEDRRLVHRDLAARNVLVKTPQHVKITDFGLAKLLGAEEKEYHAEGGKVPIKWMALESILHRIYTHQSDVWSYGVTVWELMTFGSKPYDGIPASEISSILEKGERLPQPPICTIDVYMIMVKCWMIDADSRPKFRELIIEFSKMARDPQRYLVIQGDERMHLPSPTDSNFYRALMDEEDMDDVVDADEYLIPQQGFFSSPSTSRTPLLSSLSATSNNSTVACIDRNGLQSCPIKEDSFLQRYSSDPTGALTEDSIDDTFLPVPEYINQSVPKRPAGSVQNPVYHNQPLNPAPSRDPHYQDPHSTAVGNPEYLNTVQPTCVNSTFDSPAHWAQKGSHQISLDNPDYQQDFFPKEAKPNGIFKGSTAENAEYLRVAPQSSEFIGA
Activated CDC42 kinase 1 (Homo sapiens), sequence (Q07912 whole entry, looked up): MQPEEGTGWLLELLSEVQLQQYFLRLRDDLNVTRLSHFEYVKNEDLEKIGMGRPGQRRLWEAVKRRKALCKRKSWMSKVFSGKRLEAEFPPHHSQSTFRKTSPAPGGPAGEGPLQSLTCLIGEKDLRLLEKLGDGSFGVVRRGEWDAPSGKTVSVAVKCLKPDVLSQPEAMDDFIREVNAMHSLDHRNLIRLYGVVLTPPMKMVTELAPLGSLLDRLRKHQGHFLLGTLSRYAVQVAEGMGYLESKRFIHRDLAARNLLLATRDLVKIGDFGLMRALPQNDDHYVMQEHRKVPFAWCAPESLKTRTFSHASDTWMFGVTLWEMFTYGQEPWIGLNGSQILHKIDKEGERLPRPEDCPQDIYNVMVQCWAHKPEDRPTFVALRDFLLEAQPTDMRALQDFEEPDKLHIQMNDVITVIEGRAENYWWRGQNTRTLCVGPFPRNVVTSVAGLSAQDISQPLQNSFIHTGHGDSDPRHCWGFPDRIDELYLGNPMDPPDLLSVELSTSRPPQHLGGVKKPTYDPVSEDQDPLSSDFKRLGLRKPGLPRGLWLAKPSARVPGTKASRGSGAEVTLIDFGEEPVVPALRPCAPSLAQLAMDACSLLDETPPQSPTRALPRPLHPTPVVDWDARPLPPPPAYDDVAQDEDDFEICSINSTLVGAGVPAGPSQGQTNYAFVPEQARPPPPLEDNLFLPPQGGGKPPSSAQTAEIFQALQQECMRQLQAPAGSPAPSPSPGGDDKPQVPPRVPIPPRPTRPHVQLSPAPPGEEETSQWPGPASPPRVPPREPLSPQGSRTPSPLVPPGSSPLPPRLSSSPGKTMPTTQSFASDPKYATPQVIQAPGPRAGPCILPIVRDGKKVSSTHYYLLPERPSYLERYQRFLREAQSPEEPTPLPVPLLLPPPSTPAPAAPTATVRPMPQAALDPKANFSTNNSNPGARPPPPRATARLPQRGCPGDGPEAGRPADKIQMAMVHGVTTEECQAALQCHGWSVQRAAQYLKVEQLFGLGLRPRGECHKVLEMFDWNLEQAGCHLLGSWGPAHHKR
5'-AMP-activated protein kinase catalytic subunit alpha-2 (Homo sapiens), sequence (P54646 whole entry, looked up): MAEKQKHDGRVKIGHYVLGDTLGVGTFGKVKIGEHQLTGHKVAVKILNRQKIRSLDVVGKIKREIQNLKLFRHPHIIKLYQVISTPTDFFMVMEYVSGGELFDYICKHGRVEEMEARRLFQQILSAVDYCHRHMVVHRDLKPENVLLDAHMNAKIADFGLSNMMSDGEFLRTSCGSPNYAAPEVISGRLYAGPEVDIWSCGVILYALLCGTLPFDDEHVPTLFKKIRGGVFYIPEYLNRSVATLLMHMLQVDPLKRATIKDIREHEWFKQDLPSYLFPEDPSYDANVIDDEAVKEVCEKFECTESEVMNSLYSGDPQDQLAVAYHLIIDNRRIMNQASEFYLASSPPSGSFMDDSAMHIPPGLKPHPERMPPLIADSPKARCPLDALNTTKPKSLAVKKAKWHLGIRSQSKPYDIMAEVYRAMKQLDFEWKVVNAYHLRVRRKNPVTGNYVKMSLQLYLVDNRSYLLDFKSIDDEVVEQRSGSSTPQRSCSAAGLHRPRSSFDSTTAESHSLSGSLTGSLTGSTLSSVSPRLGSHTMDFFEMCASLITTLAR

`CCN1CCN(Cc2ccc(NC(=O)c3ccc(C)c(Oc4ccnc5[nH]ccc45)c3)cc2C(F)(F)F)CC1` was tested, and the inhibition [1] was -4.7%, the inhibition [2] was 96% and the inhibition [3] was “inactive”. The inhibition [4] was 19.3%, the inhibition [5] was 14.5% and the inhibition [6] was “inactive”. It also gave an inhibition [7] of 4.5%, an inhibition [8] of 0.7% and an inhibition [9] of -6.8%. For the same molecule, the inhibition [10] was “inactive”.

`CNc1cc(Oc2cc(C(=O)Nc3cc(N4CCN(C)CC4)cc(C(F)(F)F)c3)ccc2C)ncn1` showed an inhibition [11] of 5.3%, an inhibition [12] of -9.1% and an inhibition [13] of 22.4%.

Work on `CCN1CCN(Cc2ccc(NC(=O)c3ccc(C)c(/C=C/c4cnc5[nH]ccc5c4OC)c3)cc2C(F)(F)F)CC1` yielded an inhibition [14] of 6.6%, a residual activity [15] of 5.7% and an inhibition [16] of 2.9%. For the same molecule, the inhibition [17] was 73%, the inhibition [18] was -8.2% and the residual activity [19] was 63%.
